According to patent publication US8445501B2, “Substituted 7-carboxamido-pyrrolo[3,2-d]pyrimidines” (Takeda GmbH, priority 2008, dated 2013):

Target: T1, human PDE5 (Homo sapiens, UniProt O76074)
T1 construct: from tissue; host or cells: platelets from fresh blood of human donors (lysate, 10,000 g supernatant)
Assay: Inhibition of the type 5 phosphodiesterase (PDE5) activity, modified SPA test with platelet lysate
Format: biochemical
Conditions: PDE5 from human platelet lysate, 0.5 μM cGMP
Outline: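 Human platelet lysate (10,000 g supernatant) as PDE5 source in SPA with 0.5 μM cGMP plus [3H]cGMP tracer, pH 7.4, 5 mM Mg2+, 1 μM motapizone and 10 nM PDE2 inhibitor; 10–20% conversion. 5 min preincubation, 15 min at 37 °C, stopped with SPA beads/IBMX. IC50 by non-linear regression.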

IC50 [nM] | SMILES
2.4 | COCC(=O)N[C@H]1CC[C@@H](NC(=O)c2c[nH]c3c(-c4ccc(F)cc4OCC4CC4)ncnc23)CC1 [Example 76, cis-4-(2-Cyclopropylmethoxy-4-fluoro-phenyl)-5H-pyrrolo[3,2-d]pyrimidine-7-carboxylic acid [4-(2-methoxy-acetylamino)-cyclohexyl]-amide]
2.14 | CCOC(=O)N[C@H]1CC[C@@H](NC(=O)c2c[nH]c3c(-c4ccc(F)cc4OCC4CC4)ncnc23)CC1 [Example 77, cis-(4-{[4-(2-Cyclopropylmethoxy-4-fluoro-phenyl)-5H-pyrrolo[3,2-d]pyrimidine-7-carbonyl]-amino}-cyclohexyl)-carbamic acid ethyl ester]
2.29 | CC(=O)N[C@H]1CC[C@H](NC(=O)c2c[nH]c3c(-c4ccc(F)cc4OCC4CC4)ncnc23)CC1 [Example 78, trans-4-(2-Cyclopropylmethoxy-4-fluoro-phenyl)-5H-pyrrolo[3,2-d]pyrimidine-7-carboxylic acid (4-acetylamino-cyclohexyl)-amide]
1.55 | COCC(=O)N[C@H]1CC[C@H](NC(=O)c2c[nH]c3c(-c4ccc(F)cc4OCC4CC4)ncnc23)CC1 [Example 79, trans-4-(2-Cyclopropylmethoxy-4-fluoro-phenyl)-5H-pyrrolo[3,2-d]pyrimidine-7-carboxylic acid [4-(2-methoxy-acetylamino)-cyclohexyl]-amide]
1.41 | CCOC(=O)N[C@H]1CC[C@H](NC(=O)c2c[nH]c3c(-c4ccc(F)cc4OCC4CC4)ncnc23)CC1 [Example 80, trans-(4-{[4-(2-Cyclopropylmethoxy-4-fluoro-phenyl)-5H-pyrrolo[3,2-d]pyrimidine-7-carbonyl]-amino}-cyclohexyl)-carbamic acid ethyl ester]
1.48 | CC(=O)N1CCC(NC(=O)c2c[nH]c3c(-c4ccc(F)cc4OCC4CC4)ncnc23)CC1 [Example 81, 4-(2-Cyclopropylmethoxy-4-fluoro-phenyl)-5H-pyrrolo[3,2-d]pyrimidine-7-carboxylic acid (1-acetyl-piperidin-4-yl)-amide]
1.1 | CCC(=O)N1CCC(NC(=O)c2c[nH]c3c(-c4ccc(F)cc4OCC4CC4)ncnc23)CC1 [Example 82, 4-(2-Cyclopropylmethoxy-4-fluoro-phenyl)-5H-pyrrolo[3,2-d]pyrimidine-7-carboxylic acid (1-propionyl-piperidin-4-yl)-amide]
5.13 | COCC(=O)N1CCC(NC(=O)c2c[nH]c3c(-c4ccc(F)cc4OCC4CC4)ncnc23)CC1 [Example 83, 4-(2-Cyclopropylmethoxy-4-fluoro-phenyl)-5H-pyrrolo[3,2-d]pyrimidine-7-carboxylic acid [1-(2-methoxy-acetyl)piperidin-4-yl]-amide]
2.95 | CC(=O)N1CCC(NC(=O)c2c[nH]c3c(-c4cc(F)ccc4OCC4CC4)ncnc23)CC1 [Example 84, 4-(2-Cyclopropylmethoxy-5-fluoro-phenyl)-5H-pyrrolo[3,2-d]pyrimidine-7-carboxylic acid (1-acetyl-piperidin-4-yl)-amide]
1.58 | CCC(=O)N1CCC(NC(=O)c2c[nH]c3c(-c4cc(F)ccc4OCC4CC4)ncnc23)CC1 [Example 85, 4-(2-Cyclopropylmethoxy-5-fluoro-phenyl)-5H-pyrrolo[3,2-d]pyrimidine-7-carboxylic acid (1-propionyl-piperidin-4-yl)-amide]
3.98 | COCC(=O)N1CCC(NC(=O)c2c[nH]c3c(-c4cc(F)ccc4OCC4CC4)ncnc23)CC1 [Example 86, 4-(2-Cyclopropylmethoxy-5-fluoro-phenyl)-5H-pyrrolo[3,2-d]pyrimidine-7-carboxylic acid [1-(2-methoxy-acetyl)piperidin-4-yl]-amide]
1.12 | CC(=O)N[C@H]1CC[C@H](NC(=O)c2c[nH]c3c(-c4cc(F)ccc4OCC4CC4)ncnc23)CC1 [Example 87, trans-4-(2-Cyclopropylmethoxy-5-fluoro-phenyl)-5H-pyrrolo[3,2-d]pyrimidine-7-carboxylic acid (4-acetylamino-cyclohexyl)-amide]
1.66 | CCC(=O)N[C@H]1CC[C@H](NC(=O)c2c[nH]c3c(-c4cc(F)ccc4OCC4CC4)ncnc23)CC1 [Example 88, trans-4-(2-Cyclopropylmethoxy-5-fluoro-phenyl)-5H-pyrrolo[3,2-d]pyrimidine-7-carboxylic acid (4-propionylamino-cyclohexyl)-amide]
1.29 | COCC(=O)N[C@H]1CC[C@H](NC(=O)c2c[nH]c3c(-c4cc(F)ccc4OCC4CC4)ncnc23)CC1 [Example 89, trans-4-(2-Cyclopropylmethoxy-5-fluoro-phenyl)-5H-pyrrolo[3,2-d]pyrimidine-7-carboxylic acid [4-(2-methoxy-acetylamino)-cyclohexyl]-amide]
5.62 | CC(=O)N[C@H]1CC[C@H](NC(=O)c2c[nH]c3c(-c4ccccc4OCC4CC4)ncnc23)CC1 [Example 90, trans-4-(2-Cyclopropylmethoxy-phenyl)-5H-pyrrolo[3,2-d]pyrimidine-7-carboxylic acid (4-acetylamino-cyclohexyl)-amide]
6.31 | COCC(=O)N[C@H]1CC[C@H](NC(=O)c2c[nH]c3c(-c4ccccc4OCC4CC4)ncnc23)CC1 [Example 91, trans-4-(2-Cyclopropylmethoxy-phenyl)-5H-pyrrolo[3,2-d]pyrimidine-7-carboxylic acid [4-(2-methoxy-acetylamino)-cyclohexyl]-amide]
3.39 | CCOC(=O)N[C@H]1CC[C@H](NC(=O)c2c[nH]c3c(-c4ccccc4OCC4CC4)ncnc23)CC1 [Example 92, trans-(4-{[4-(2-Cyclopropylmethoxy-phenyl)-5H-pyrrolo[3,2-d]pyrimidine-7-carbonyl]-amino}-cyclohexyl)-carbamic acid ethyl ester]
2.51 | O=C(N[C@H]1CC[C@H](NC(=O)C2CC2)CC1)c1c[nH]c2c(-c3ccccc3OCC3CC3)ncnc12 [Example 93, trans-4-(2-Cyclopropylmethoxy-phenyl)-5H-pyrrolo[3,2-d]pyrimidine-7-carboxylic acid [4-(cyclopropanecarbonyl-amino)cyclohexyl]-amide]
8.71 | CC(=O)N1CCC(NC(=O)c2c[nH]c3c(-c4ccccc4OCC4CC4)ncnc23)CC1 [Example 94, 4-(2-Cyclopropylmethoxy-phenyl)-5H-pyrrolo[3,2-d]pyrimidine-7-carboxylic acid (1-acetyl-piperidin-4-yl)-amide]
3.31 | CCOC(=O)N1CCC(NC(=O)c2c[nH]c3c(-c4ccccc4OCC4CC4)ncnc23)CC1 [Example 95, 4-{[4-(2-Cyclopropylmethoxy-phenyl)-5H-pyrrolo[3,2-d]pyrimidine-7-carbonyl]-amino}-piperidine-1-carboxylic acid ethyl ester]
2.14 | O=C(NC1CCN(C(=O)C2CC2)CC1)c1c[nH]c2c(-c3ccccc3OCC3CC3)ncnc12 [Example 96, 4-(2-Cyclopropylmethoxy-phenyl)-5H-pyrrolo[3,2-d]pyrimidine-7-carboxylic acid (1-cyclopropanecarbonyl-piperidin-4-yl)-amide]
0.117 | CCC(=O)N1CCC(NC(=O)c2c[nH]c3c(-c4cc(OC)c(F)cc4OCC4CC4)ncnc23)CC1 [Example 97, 4-(2-Cyclopropylmethoxy-4-fluoro-5-methoxy-phenyl)-5H-pyrrolo[3,2-d]pyrimidine-7-carboxylic acid (1-propionyl-piperidin-4-yl)-amide]
0.219 | COCC(=O)N1CCC(NC(=O)c2c[nH]c3c(-c4cc(OC)c(F)cc4OCC4CC4)ncnc23)CC1 [Example 98, 4-(2-Cyclopropylmethoxy-4-fluoro-5-methoxy-phenyl)-5H-pyrrolo[3,2-d]pyrimidine-7-carboxylic acid [1-(2-methoxy-ethanoyl)-piperidin-4-yl]-amide]
0.178 | COc1cc(-c2ncnc3c(C(=O)NC4CCN(C(C)=O)CC4)c[nH]c23)c(OCC2CC2)cc1F [Example 99, 4-(2-Cyclopropylmethoxy-4-fluoro-5-methoxy-phenyl)-5H-pyrrolo[3,2-d]pyrimidine-7-carboxylic acid (1-acetyl-piperidin-4-yl)-amide]
0.126 | COc1cc(-c2ncnc3c(C(=O)N[C@@H]4CCCN(C(C)=O)C4)c[nH]c23)c(OCC2CC2)cc1F [Example 100, 4-(2-Cyclopropylmethoxy-4-fluoro-5-methoxy-phenyl)-5H-pyrrolo[3,2-d]pyrimidine-7-carboxylic acid ((R)-1-acetyl-piperidin-3-yl)-amide]
0.162 | CCC(=O)N1CCC[C@@H](NC(=O)c2c[nH]c3c(-c4cc(OC)c(F)cc4OCC4CC4)ncnc23)C1 [Example 101, 4-(2-Cyclopropylmethoxy-4-fluoro-5-methoxy-phenyl)-5H-pyrrolo[3,2-d]pyrimidine-7-carboxylic acid ((R)-1-propionyl-piperidin-3-yl)-amide]
0.115 | COCC(=O)N1CCC[C@@H](NC(=O)c2c[nH]c3c(-c4cc(OC)c(F)cc4OCC4CC4)ncnc23)C1 [Example 102, 4-(2-Cyclopropylmethoxy-4-fluoro-5-methoxy-phenyl)-5H-pyrrolo[3,2-d]pyrimidine-7-carboxylic acid [(R)-1-(2-methoxy-acetyl)piperidin-3-yl]-amide]
0.234 | CCC(=O)N1CC[C@@H](NC(=O)c2c[nH]c3c(-c4cc(OC)c(F)cc4OCC4CC4)ncnc23)C1 [Example 104, 4-(2-Cyclopropylmethoxy-4-fluoro-5-methoxy-phenyl)-5H-pyrrolo[3,2-d]pyrimidine-7-carboxylic acid ((R)-1-propionyl-pyrrolidin-3-yl)-amide]
0.372 | COCC(=O)N1CC[C@@H](NC(=O)c2c[nH]c3c(-c4cc(OC)c(F)cc4OCC4CC4)ncnc23)C1 [Example 105, 4-(2-Cyclopropylmethoxy-4-fluoro-5-methoxy-phenyl)-5H-pyrrolo[3,2-d]pyrimidine-7-carboxylic acid [(R)-1-(2-methoxy-acetyl)-pyrrolidin-3-yl]amide]
